Data from patent US20080241274A1 (ZIOPHARM Oncology, Inc., priority 2006, published 2008).
Where two headings read alike, the source gives them in different places.

Experiments:
[1] = system: MCF-7 ER-positive breast cancer; assay: Monolayer assay (DNA content by propidium iodide), single agents and indibulin combinations, MCF-7; type: cell-based, human; conditions: for IC50: Homo sapiens; for CI (e), coefficient of interaction under optimal experimental concentrations: named drug in combination with indibulin, mean of quadruplicate
Experimental: (§1) The monolayer assay determines the in vitro antitumor activity of test compounds and their capacity to inhibit survival and proliferation of established tumor cell lines. These effects can be determined by establishing the number of viable cells based on measuring the DNA content using propidium iodide. […] Between 5,000 and 10,000 cells were seeded in 96 well plates on Day 0 and the compounds were added 1 day later and incubated for 4 days. The activity was assessed by their IC50 and IC70 values.
(§2) Growth IC50 and IC70 values (Table 2) were determined using XLfit software package, and used to set the concentration ranges and drug ratios for the synergy detection part of the study.
(§3) Chou-Talalay median effect method was used to quantitatively characterize drug-drug interaction [Chou T. C. Theoretical basis, experimental design, and computerized simulation of synergism and antagonism in drug combination studies. Pharmacol Rev. 2006 September; 58(3):621-81]. […] Mixtures of the drugs at multiples of their single agent IC50's were prepared, as well as serial dilutions of the mixture. Additionally, single agent dose response was determined for the same concentration ranges as used for combination study.
(§4) The coefficient of interaction (CI(IC50)) at IC50 and coefficient of interaction under optimal experimental concentrations (CI(e)) were determined using CalcuSyn software package (Table 3, tests were performed in quadruplicate, mean values reported). Commonly, experimental values of CI<0.8 are considered synergistic, 0.8<CI<1.2 additive.

SKOV3 (ovarian) = assay: Monolayer assay (DNA content by propidium iodide), single agents and indibulin combinations, SKOV3; type: cell-based, human; conditions: for Single Agent IC50: SKOV3, single agent (combination study); for Combination IC50 / CI (e), coefficient of interaction under optimal experimental concentrations: SKOV3; for CI (e), coefficient of interaction under optimal experimental concentrations: named drug in combination with indibulin, mean of quadruplicate; for IC50: Homo sapiens
Experimental: as §1, §2, §3, §4

A549 NSCLC = assay: Monolayer assay (DNA content by propidium iodide), single agents and indibulin combinations, A549; type: cell-based, human; conditions: for CI (e), coefficient of interaction under optimal experimental concentrations: named drug in combination with indibulin, mean of quadruplicate; for IC50: Homo sapiens
Experimental: as §1, §2, §3, §4

PC3 (prostate) = assay: Monolayer assay (DNA content by propidium iodide), single agents and indibulin combinations, PC3; type: cell-based, human; conditions: for IC50: Homo sapiens, read-out: Single Agent IC50; for Combination IC50 / CI (e), coefficient of interaction under optimal experimental concentrations: PC3; for Combination IC50: concentration of the named drug in the combination; for CI (e), coefficient of interaction under optimal experimental concentrations: named drug in combination with indibulin, mean of quadruplicate
Experimental: as §1, §2, §3, §4

[2] = system: biotin-labeled calf brain tubulin; assay: Competition with 3H-indibulin for tubulin binding (SPA beads); set-up: species or system bovine; conditions: 200-fold molar excess of cold competitor; FIG. 7
Experimental: (§5) Where indicated, a 200-fold molar excess of cold competitor was added. Tubulin heterodimers were then precipitated with streptavidin-coated SPA beads and bound radioactivity was determined. “No tubulin” indicates non-specifically bound radioactivity measured in the absence of biotin-labeled tubulin.

[3] = system: biotin-labeled calf brain tubulin; assay: Competition with 3H-colchicine for tubulin binding (SPA beads); set-up: species or system bovine; conditions: 200-fold molar excess of cold competitor; FIG. 8
Experimental: as §5

[4] = system: axonal microtubules of rat pheochromocytoma (PC12) cells; assay: Axonal microtubule immunostaining in NGF-differentiated PC12 cells; type: cell-based; conditions: PC12 neurites induced by NGF 5-6 days; 24 h treatment at 2×IC50 concentration
Source text: The outgrowth of neurites of PCl2 was induced by NGF for 5-6 days. […] Microtubules within the neurites, were visualized by immunostaining with an antibody recognizing acetylated (axonal) tubulin, leaving the cell bodies unstained.

[5] = system: adult bovine brain tubulin; assay: Tubulin polymerization, adult bovine brain tubulin; type: biochemical; conditions: calf and adult bovine brain tubulin compared
Source text: Tubulin from neuronal tissue is post-translationally modified and the degree of modification increases during neuronal development. Calf brain neuronal tubulin and tubulin from other tissues differ in their post-translational modifications from that of adult bovine brain. […] Tubulin polymerization is given as % over DMSO control.

[6] = MCF7, MCF7, single agent (combination study), read-out: Single Agent IC50
[7] = MCF7, single agent (combination study)
[8] = MCF7, indibulin + 5-FU (5FU:indibulin 10.9:1), concentration of the named drug in the combination
[9] = A549, single agent (combination study)
[10] = A549, indibulin + carboplatin (carboplatin:indibulin 303:1), concentration of the named drug in the combination
[11] = A549, 96 h, A549, single agent, 4 days incubation, read-out: Growth IC50
[12] = MCF7, 96 h, MCF7, single agent, 4 days incubation, read-out: Growth IC50
[13] = MCF7, indibulin + paclitaxel (paclitaxel:indibulin 0.27:1), concentration of the named drug in the combination
[14] = MCF7, indibulin + vinorelbine (vinorelbine:indibulin 0.016:1), concentration of the named drug in the combination

O=c1[nH]cc(F)c(=O)[nH]1 [5-FU, 5-Fluorouracil] was tested, and the IC50 [1, 6] was 92 ng/mL, the “Single Agent IC60” value [1, 7] was 84 ng/mL and the “Combination IC50” value [1, 8] was 57 ng/mL. For the same compound, the “Combination IC60” value [1, 8] was 30 ng/mL and the “CI (e), coefficient of interaction under optimal experimental concentrations” value (“CI (e), coefficient of interaction” below) ([1]; MCF7) was 0.46.
For N.N.O=C([O-])C1(C(=O)[O-])CCC1.[Pt+2] [Carboplatin], the “Single Agent IC50” value (SKOV3 (ovarian)) was 12,026 ng/mL, the “Combination IC50” value (SKOV3 (ovarian); indibulin + carboplatin, concentration of the named drug in the combination) was 12,881 ng/mL and the “CI (e), coefficient of interaction” value (SKOV3 (ovarian)) was 0.73. For the same compound, the “Single Agent IC50” value (A549 NSCLC; [9]) was 5,827 ng/mL, the “Single Agent IC70” value (A549 NSCLC; [9]) was 15365 ng/mL and the “Combination IC50” value (A549 NSCLC; [10]) was 3481 ng/mL. For the same compound, the “Combination IC70” value (A549 NSCLC; [10]) was 8044 ng/mL and the “CI (e), coefficient of interaction” value (A549 NSCLC; A549) was 0.72.
With N.N.[Cl][Pt][Cl] [Cisplatin] the “Single Agent IC50” value (SKOV3 (ovarian)) was 773 ng/mL, the “Combination IC50” value (SKOV3 (ovarian); indibulin + cisplatin, concentration of the named drug in the combination) was 780 ng/mL and the “CI (e), coefficient of interaction” value (SKOV3 (ovarian)) was 0.77.
For COc1cccc2c1C(=O)c1c(O)c3c(c(O)c1C2=O)C[C@@](O)(C(=O)CO)C[C@@H]3O[C@H]1C[C@H](N)[C@H](O)[C@H](C)O1 [Doxorubicin], the IC50 [1, 6] was 7 ng/mL, the “Combination IC50” value ([1]; MCF7, indibulin + doxorubicin, concentration of the named drug in the combination) was 3 ng/mL and the “CI (e), coefficient of interaction” value ([1]; MCF7) was 0.64.
In the case of C#Cc1cccc(Nc2ncnc3cc(OCCOC)c(OCCOC)cc23)c1 [Erlotinib], the “Single Agent IC40” value (A549 NSCLC; [9]) is reported as 20315 ng/mL, the “Combination IC40” value (A549 NSCLC; A549, indibulin + erlotinib (erlotinib:indibulin 208:1), concentration of the named drug in the combination) is reported as 4424 ng/mL and the “CI (e), coefficient of interaction” value (A549 NSCLC; A549) is reported as 0.32. The IC50 (A549 NSCLC; [11]) was 7.86 µg/mL, the IC50 (A549 NSCLC; A549, A549, single agent (combination study), read-out: Single Agent IC50) was 38.5 µg/mL and the IC50 (A549 NSCLC; A549, A549, indibulin + erlotinib (erlotinib:indibulin 208:1), concentration of the named drug in the combination, read-out: Combination IC50) was 6.2 µg/mL.
With C[C@]12CC[C@@H]3c4ccc(OC(=O)N(CCCl)CCCl)cc4CC[C@H]3[C@@H]1CC[C@@H]2O [Estramustine] the IC50 (PC3 (prostate)) was 29.7 µg/mL, the “Combination IC50” value (PC3 (prostate); indibulin + estramustine) was 26,466 ng/mL and the “CI (e), coefficient of interaction” value (PC3 (prostate)) was 0.76.
For COc1cc([C@@H]2c3cc4c(cc3[C@@H](O[C@@H]3O[C@@H]5CO[C@@H](C)O[C@H]5[C@H](O)[C@H]3O)[C@H]3COC(=O)[C@H]23)OCO4)cc(OC)c1O [Etoposide], the “Single Agent IC60” value (A549 NSCLC; [9]) was 177 ng/mL, the “Combination IC60” value (A549 NSCLC; A549, indibulin + etoposide, concentration of the named drug in the combination) was 94 ng/mL and the “CI (e), coefficient of interaction” value (A549 NSCLC; A549) was 1.05. It also gave an IC50 (A549 NSCLC; [11]) of 0.052 µg/mL.
In the case of Nc1ccn([C@@H]2O[C@H](CO)[C@@H](O)C2(F)F)c(=O)n1 [Gemcitabine], the IC50 (SKOV3 (ovarian); SK-OV-3, SKOV3, single agent (combination study), read-out: Single Agent IC50) is reported as 0.011 µg/mL, the IC50 (SKOV3 (ovarian); SK-OV-3, SKOV3, indibulin + gemcitabine, concentration of the named drug in the combination, read-out: Combination IC50) is reported as 0.012 µg/mL and the “CI (e), coefficient of interaction” value (SKOV3 (ovarian)) is reported as 0.65. The “CI (e), coefficient of interaction” value (A549 NSCLC; A549) was 0.93 and the IC50 (A549 NSCLC; [11]) was 0.0017 µg/mL.
With CC(=O)O[C@H]1C(=O)[C@@]2(C)[C@H]([C@H](OC(=O)c3ccccc3)[C@]3(O)C[C@H](OC(=O)[C@H](O)[C@@H](NC(=O)c4ccccc4)c4ccccc4)C(C)=C1C3(C)C)[C@]1(OC(C)=O)CO[C@@H]1C[C@@H]2O [Paclitaxel] the IC50 [1, 12] was 0.3 ng/mL, the IC50 [1, 6] was 1.27 ng/mL and the “Single Agent IC84” value [1, 7] was 5.3 ng/mL. For the same compound, the “Combination IC50” value [1, 13] was 1.08 ng/mL, the “Combination IC84” value [1, 13] was 2.7 ng/mL and the “CI (e), coefficient of interaction” value ([1]; MCF7) was 0.42. The “Competition with 3H-indibulin for tubulin binding” value (“Competition with 3H-indibulin” for short) [2] was “do not compete” and the “Inhibition of 3H-colchicine binding (in words)” value [3] was “no effect”.
In the case of C[C@]12C=CC(=O)C=C1CC[C@@H]1[C@@H]2[C@@H](O)C[C@@]2(C)[C@H]1CC[C@]2(O)C(=O)CO [Prednisolone], the IC50 (PC3 (prostate); PC3, single agent (combination study)) is reported as 137 µg/mL, the “Combination IC50” value (PC3 (prostate); indibulin + prednisolone) is reported as 145,659 ng/mL and the “CI (e), coefficient of interaction” value (PC3 (prostate)) is reported as 0.91.
CC/C(=C(\c1ccccc1)c1ccc(OCCN(C)C)cc1)c1ccccc1 [Tamoxifen] was tested, and the “Single Agent IC60” value [1, 7] was 3166 ng/mL, the “Combination IC60” value ([1]; MCF7, indibulin + tamoxifen (tamoxifen:indibulin 100:1), concentration of the named drug in the combination) was 641 ng/mL and the “CI (e), coefficient of interaction” value ([1]; MCF7) was 0.67.
For CC[C@]1(O)C[C@@H]2CN(CCc3c([nH]c4ccccc34)[C@@](C(=O)OC)(c3cc4c(cc3OC)N(C)[C@H]3[C@@](O)(C(=O)OC)[C@H](OC(C)=O)[C@]5(CC)C=CCN6CC[C@]43[C@@H]65)C2)C1 [Vinblastine], the “CI (e), coefficient of interaction” value ([1]; MCF7) was 0.50, the “Competition with 3H-indibulin” value [2] was “do not compete” and the “Inhibition of 3H-colchicine binding (in words)” value [3] was “no effect”.
In the case of CCC1=C[C@@H]2CN(C1)Cc1c([nH]c3ccccc13)[C@@](C(=O)OC)(c1cc3c(cc1OC)N(C)[C@H]1[C@@](O)(C(=O)OC)[C@H](OC(C)=O)[C@]4(CC)C=CCN5CC[C@]31[C@@H]54)C2 [Vinorelbine], the IC50 [1, 12] is reported as 0.18 ng/mL, the IC50 [1, 6] is reported as 0.19 ng/mL and the “Single Agent IC60” value [1, 7] is reported as 0.26 ng/mL. For the same compound, the “Combination IC50” value [1, 14] was 0.08 ng/mL and the “Combination IC60” value [1, 14] was 0.10 ng/mL.
With COc1cc2c(c(OC)c1OC)-c1ccc(OC)c(=O)cc1[C@@H](NC(C)=O)CC2 [colchicine] the “Effect on axonal microtubules (acetylated tubulin immunostaining)” value [4] was “microtubules were partially disrupted”.
In the case of COC(=O)Nc1nc2ccc(C(=O)c3cccs3)cc2[nH]1 [nocodazole], the “Competition with 3H-indibulin” value [2] is reported as “compete” and the “Inhibition of 3H-colchicine binding (in words)” value [3] is reported as “completely inhibit binding”.
For COc1cc([C@@H]2c3cc4c(cc3[C@H](O)[C@H]3COC(=O)[C@H]23)OCO4)cc(OC)c1OC [podophyllotoxin], the “Competition with 3H-indibulin” value [2] was “compete” and the “Inhibition of 3H-colchicine binding (in words)” value [3] was “completely inhibit binding”.
With CC[C@]1(O)C[C@H]2CN(CCc3c([nH]c4ccccc34)[C@@](C(=O)OC)(c3cc4c(cc3OC)N(C=O)[C@H]3[C@@](O)(C(=O)OC)[C@H](OC(C)=O)[C@]5(CC)C=CCN6CC[C@]43[C@@H]65)C2)C1 [vincristine] the “Inhibition of calf versus bovine brain tubulin polymerization (in words)” value [5] was “inhibited both, calf and bovine brain tubulin polymerization to a similar extent”.
